Reference: ChEMBL document CHEMBL1133130, “Synthesis and evaluation of geldanamycin-testosterone hybrids” (Bioorg Med Chem Lett, 2000)

How the values were obtained:
Format in all cases: functional, cell-based
MCF7 = assay: Compound was evaluated for cytotoxicity against MCF-7 breast cancer cells ([…] cells); settings: Homo sapiens
COLO 205 = assay: Compound was evaluated for cytotoxicity against COLO 205 colon cancer cells ([…] cells); settings: Homo sapiens
[1] = Compound was evaluated for cytotoxicity against MDA-468 breast cancer cells ([…] cells); settings: Homo sapiens, MDA-MB-468
LNCaP [2] = assay: Compound was evaluated for cytotoxicity against LNCaP prostate cancer cells; settings: Homo sapiens
[3] = Compound was evaluated for cytotoxicity against LAPC4 prostate cancer cells (AR dependent cells); settings: Homo sapiens
PC-3 = assay: Compound was evaluated for cytotoxicity against PC3 prostate cancer cells ([…] cells); settings: Homo sapiens
LNCaP [4] = assay: Compound was evaluated for cytotoxicity against LNCaP prostate cancer cells (AR dependent cells); settings: Homo sapiens

## CO[C@H]1/C=C\C=C(/C)C(=O)NC2=CC(=O)C(NCCCCC#C[C@]3(O)CC[C@@]4(C)C5CCC6=CC(=O)CC[C@]6(C)[C@@]5(C)CC[C@@]43C)=C(C[C@H](C)C[C@H](OC)[C@@H](O)[C@H](C)/C=C(\C)C[C@@H]1OC(N)=O)C2=O (stereo partly specified)
MCF7
  IC50: 300 nM
COLO 205
  IC50: 200 nM
[1]
  IC50: 240 nM
LNCaP [2]
  IC50: 100 nM
[3]
  IC50: 40 nM
PC-3
  IC50: 300 nM
LNCaP [4]
  IC50: 100 nM

## CO[C@H]1/C=C\C=C(/C)C(=O)NC2=CC(=O)C(NCCCCCC[C@]3(O)CC[C@@]4(C)C5CC=C6CC7(CC[C@]6(C)[C@@]5(C)CC[C@]34C)OCCO7)=C(C[C@H](C)C[C@H](OC)[C@@H](O)[C@H](C)/C=C(\C)C[C@@H]1OC(N)=O)C2=O (stereo partly specified)
LNCaP [2]
  IC50: > 1000 nM

## CO[C@H]1/C=C\C=C(/C)C(=O)NC2=CC(=O)C(NCCCC#C[C@]3(O)CC[C@@]4(C)C5CCC6=CC(=O)CC[C@]6(C)[C@@]5(C)CC[C@@]43C)=C(C[C@H](C)C[C@H](OC)[C@@H](O)[C@H](C)/C=C(\C)C[C@@H]1OC(N)=O)C2=O (stereo partly specified)
LNCaP [2]
  IC50: 200 nM

## CO[C@H]1/C=C\C=C(/C)C(=O)NC2=CC(=O)C(NCCCC/C=C/[C@]3(O)CC[C@@]4(C)C5CC=C6CC7(CC[C@]6(C)[C@@]5(C)CC[C@@]43C)OCCO7)=C(C[C@H](C)C[C@H](OC)[C@@H](O)[C@H](C)/C=C(\C)C[C@@H]1OC(N)=O)C2=O (stereo partly specified)
LNCaP [2]
  IC50: > 1000 nM

## COC1=C2C[C@H](C)C[C@H](OC)[C@@H](O)[C@H](C)/C=C(\C)C[C@H](OC(N)=O)[C@@H](OC)/C=C\C=C(/C)C(=O)NC(=CC1=O)C2=O
MCF7
  IC50: 30 nM
COLO 205
  IC50: 20 nM
[1]
  IC50: 20 nM
LNCaP [2]
  IC50: 40 nM
[3]
  IC50: 25 nM
PC-3
  IC50: 30 nM
LNCaP [4]
  IC50: 40 nM

## CO[C@H]1/C=C\C=C(/C)C(=O)NC2=CC(=O)C(NCCCCCCC#C[C@]3(O)CC[C@@]4(C)C5CCC6=CC(=O)CC[C@]6(C)[C@@]5(C)CC[C@@]43C)=C(C[C@H](C)C[C@H](OC)[C@@H](O)[C@H](C)/C=C(\C)C[C@@H]1OC(N)=O)C2=O (stereo partly specified)
LNCaP [2]
  IC50: > 1000 nM

## CO[C@H]1/C=C\C=C(/C)C(=O)NC2=CC(=O)C(NCCC#C[C@]3(O)CC[C@@]4(C)C5CCC6=CC(=O)CC[C@]6(C)[C@@]5(C)CC[C@@]43C)=C(C[C@H](C)C[C@H](OC)[C@@H](O)[C@H](C)/C=C(\C)C[C@@H]1OC(N)=O)C2=O (stereo partly specified)
LNCaP [2]
  IC50: > 1000 nM

## CO[C@H]1/C=C\C=C(/C)C(=O)NC2=CC(=O)C(NCCCCCC#C[C@]3(O)CC[C@@]4(C)C5CCC6=CC(=O)CC[C@]6(C)[C@@]5(C)CC[C@@]43C)=C(C[C@H](C)C[C@H](OC)[C@@H](O)[C@H](C)/C=C(\C)C[C@@H]1OC(N)=O)C2=O (stereo partly specified)
LNCaP [2]
  IC50: > 1000 nM

## CO[C@H]1/C=C\C=C(/C)C(=O)NC2=CC(=O)C(NCCCC/C=C\[C@]3(O)CC[C@@]4(C)C5CC=C6CC7(CC[C@]6(C)[C@@]5(C)CC[C@@]43C)OCCO7)=C(C[C@H](C)C[C@H](OC)[C@@H](O)[C@H](C)/C=C(\C)C[C@@H]1OC(N)=O)C2=O (stereo partly specified)
LNCaP [2]
  IC50: > 1000 nM
